{"source": "patent US20220054432A1", "about": "“COMPOSITION FOR INCREASING RETENTION OF CAROTENOID IN BLOOD” (ENEOS Corporation, priority 2018, published 2022)", "key": {"[1]": {"assay": "Retention in blood: carotenoid concentration in serum of cynomolgus monkeys (Test Example 3)", "assay_type": "in vivo", "details": "cynomolgus monkey, 50 mg/kg intragastric once daily for 10 days, serum 4 hours after last administration", "procedure": "As experimental animals, cynomolgus monkeys were used. Two cynomolgus monkeys were used, and an adonixanthin dosing solution was administered to one monkey (adonixanthin-administering monkey), while an astaxanthin dosing solution was administered to the other monkey (astaxanthin-administering monkey). As the dosing solutions, the dosing solutions obtained in Preparation Example 2 were used, and the dosing solutions at a dose such that the dose of adonixanthin or astaxanthin was 50 mg/kg body weight were administered once daily for 10 days (the day of initiation of administration of the dosing solutions was defined as day 1). […] The dose in each administration was calculated based on the latest body weight at each administration time point (the body weight was measured on the day of initiation of acclimation, the day of end of acclimation, the day of initiation of administration, and before administration on day 8 of administration using an electric balance (HP-40K or GP-40K, both of which are manufactured by A&D Company, Limited)). […] Regarding each serum 4 hours after the last administration of the dosing solutions, each of the concentration of adonixanthin in serum collected from the adonixanthin-administering monkey and the concentration of astaxanthin in serum collected from the astaxanthin-administering monkey was measured. […]"}, "[2]": {"assay": "Transfer into each organ: carotenoid concentration in organs of cynomolgus monkeys (Test Example 3)", "assay_type": "in vivo", "details": "cynomolgus monkey", "procedure": "As experimental animals, cynomolgus monkeys were used. Two cynomolgus monkeys were used, and an adonixanthin dosing solution was administered to one monkey (adonixanthin-administering monkey), while an astaxanthin dosing solution was administered to the other monkey (astaxanthin-administering monkey). As the dosing solutions, the dosing solutions obtained in Preparation Example 2 were used, and the dosing solutions at a dose such that the dose of adonixanthin or astaxanthin was 50 mg/kg body weight were administered once daily for 10 days (the day of initiation of administration of the dosing solutions was defined as day 1). As the administration method, a disposable catheter was inserted from the nasal cavity into the stomach, and the dosing solutions were injected into the stomach using a syringe. When the dosing solutions were collected into a syringe, the dosing solutions were collected while being stirred with a stirrer. The dose in each administration was calculated based on the latest body weight at each administration time point (the body weight was measured on the day of initiation of acclimation, the day of end of acclimation, the day of initiation of administration, and before administration on day 8 of administration using an electric balance (HP-40K or GP-40K, both of which are manufactured by A&D Company, Limited)). The administration time was 8:30 to 13:30.\nDuring the administration period of the dosing solution, each cynomolgus monkey was fed about 108 g (about 12 g×9 pieces) of a pellet once daily at 14:00 to 16:00, and the feed remained by the feeding on the next day (for the day of administration, before administration) was recovered. Each cynomolgus monkey was fed tap water at libitum, and maintained on a 12-h light/dark cycle, at […], with a relative humidity of 50±20%.\nAfter blood collection after the last administration of the dosing solutions, an aqueous solution of pentobarbital sodium (manufactured by Tokyo Chemical Industry Co., Ltd.) (64.8 mg/mL) was administered into the cephalic vein at a volume of 0.4 mL/kg body weight to perform anesthesia. After the body weight was measured, each cynomolgus monkey was euthanized by exsanguination, and the brain (cerebral cortex, cerebral medulla, cerebellum, midbrain, striatum putamen, striatum caudate nucleus, hippocampus, medulla oblongata, diencephalon), the heart, the spleen, the liver, the kidneys (right and left), and the retina were collected. Each organ thus collected was stored in a deep freezer (−70° C. or lower).\nEach of the concentration of adonixanthin in each organ collected from the adonixanthin-administering monkey (concentration relative to the weight of each organ) and the concentration of astaxanthin in each organ collected from the astaxanthin-administering monkey (concentration relative to the weight of each organ) was measured. Specifically, each organ was homogenized, and extraction was repeated with acetone until no color occurred. Then, filtration through a filter was performed to evaporate acetone, and diethyl ether:hexane (2:8, v/v) was added to the solution to extract a carotenoid. Furthermore, evaporation to dryness was performed, and the residue was dissolved in acetone:hexane (2:8, v/v) and subjected to HPLC. As the HPLC device, a Hitachi L-6000 intelligent pump and an L-4250 UV-VIS detector were used. The measurement wavelength was 450 nm, and a column of 5 μm Cosmosil 5SL-II (inner diameter of 250×4.6 mm) (manufactured by Nacalai Tesque, Inc.) was used. As the mobile phase, acetone:hexane (2:8, v/v) was used, and measurement was performed at a flow rate of 1.0 mL/min.\nEach of the concentration of adonixanthin in each organ collected from the adonixanthin-administering monkey and the concentration of astaxanthin in each organ collected from the astaxanthin-administering monkey is shown in Table 2."}}, "note": "Where two headings read alike, the source gives them in different places.", "data": [{"smiles": "CC1=C(/C=C/C(C)=C/C=C/C(C)=C/C=C/C=C(C)/C=C/C=C(C)/C=C/C2=C(C)C(=O)C(O)CC2(C)C)C(C)(C)CC(O)C1=O", "note": "(stereo not drawn) [astaxanthin, 3,3′-dihydroxy-β,β-carotene-4,4′-dione]", "values": [{"measurement": "Concentration in serum, FIG. 3", "setting": "[1]", "value": "exist in serum at a high concentration"}, {"measurement": "Transfer into and retention in each organ (summary of Table 2)", "setting": "[2]; in vivo, 50 mg/kg", "value": "exist in each organ at a high concentration"}, {"measurement": "concentration at 10 days", "setting": "[2]; in vivo, 50 mg/kg, Concentration in organ: Brain, Cerebellum", "value": 14.4, "unit": "ng/g"}, {"measurement": "concentration at 10 days", "setting": "[2]; in vivo, 50 mg/kg, Concentration in organ: Brain, Cerebral cortex", "value": 4.8, "unit": "ng/g"}, {"measurement": "concentration at 10 days", "setting": "[2]; in vivo, 50 mg/kg, Concentration in organ: Brain, Cerebral medulla", "value": 8.3, "unit": "ng/g"}, {"measurement": "concentration at 10 days", "setting": "[2]; in vivo, 50 mg/kg, Concentration in organ: Brain, Diencephalon", "value": 5.2, "unit": "ng/g"}, {"measurement": "concentration at 10 days", "setting": "[2]; in vivo, 50 mg/kg, Concentration in organ: Brain, Hippocampus", "value": 7.1, "unit": "ng/g"}, {"measurement": "concentration at 10 days", "setting": "[2]; in vivo, 50 mg/kg, Concentration in organ: Brain, Medulla oblongata", "value": 8.3, "unit": "ng/g"}, {"measurement": "concentration at 10 days", "setting": "[2]; in vivo, 50 mg/kg, Concentration in organ: Brain, Midbrain", "value": 2.9, "unit": "ng/g"}, {"measurement": "concentration at 10 days", "setting": "[2]; in vivo, 50 mg/kg, Concentration in organ: Brain, Striatum Caudate nucleus", "value": 10.2, "unit": "ng/g"}, {"measurement": "concentration at 10 days", "setting": "[2]; in vivo, 50 mg/kg, Concentration in organ: Brain, Striatum Putamen", "value": 5, "unit": "ng/g"}, {"measurement": "concentration at 10 days", "setting": "[2]; in vivo, 50 mg/kg, Concentration in organ: Heart", "value": 15.7, "unit": "ng/g"}, {"measurement": "concentration at 10 days", "setting": "[2]; in vivo, 50 mg/kg, Concentration in organ: Kidney (left)", "value": 228, "unit": "ng/g"}, {"measurement": "concentration at 10 days", "setting": "[2]; in vivo, 50 mg/kg, Concentration in organ: Kidney (right)", "value": 231, "unit": "ng/g"}, {"measurement": "concentration at 10 days", "setting": "[2]; in vivo, 50 mg/kg, Concentration in organ: Liver", "value": 37.8, "unit": "ng/g"}, {"measurement": "concentration at 10 days", "setting": "[2]; in vivo, 50 mg/kg, Concentration in organ: Retina", "value": 24.4, "unit": "ng/g"}, {"measurement": "concentration at 10 days", "setting": "[2]; in vivo, 50 mg/kg, Concentration in organ: Spleen", "value": 88.8, "unit": "ng/g"}]}, {"smiles": "CC1=C(/C=C/C(C)=C/C=C/C(C)=C/C=C/C=C(C)/C=C/C=C(C)/C=C/C2=C(C)C(=O)C(O)CC2(C)C)C(C)(C)CC(O)C1", "note": "(stereo not drawn) [adonixanthin, 3,3′-dihydroxy-β,β-caroten-4-one]", "values": [{"measurement": "Concentration in serum, FIG. 3", "setting": "[1]", "value": "especially likely to be retained in blood"}, {"measurement": "Transfer into and retention in each organ (summary of Table 2)", "setting": "[2]; 50 mg/kg intragastric once daily for 10 days", "value": "especially likely to be transferred into each organ and retained therein"}, {"measurement": "concentration at 10 days", "setting": "[2]; brain, cerebellum, oral, 50 mg/kg, 50 mg/kg intragastric once daily for 10 days, after last administration, read-out: Concentration in organ: Brain, Cerebellum", "value": 57.5, "unit": "ng/g"}, {"measurement": "concentration at 10 days", "setting": "[2]; brain, cerebral cortex, oral, 50 mg/kg, 50 mg/kg intragastric once daily for 10 days, after last administration, read-out: Concentration in organ: Brain, Cerebral cortex", "value": 48.9, "unit": "ng/g"}, {"measurement": "concentration at 10 days", "setting": "[2]; brain, cerebral medulla, oral, 50 mg/kg, 50 mg/kg intragastric once daily for 10 days, after last administration, read-out: Concentration in organ: Brain, Cerebral medulla", "value": 53.2, "unit": "ng/g"}, {"measurement": "concentration at 10 days", "setting": "[2]; brain, diencephalon, oral, 50 mg/kg, 50 mg/kg intragastric once daily for 10 days, after last administration, read-out: Concentration in organ: Brain, Diencephalon", "value": 77.1, "unit": "ng/g"}, {"measurement": "concentration at 10 days", "setting": "[2]; brain, hippocampus, oral, 50 mg/kg, 50 mg/kg intragastric once daily for 10 days, after last administration, read-out: Concentration in organ: Brain, Hippocampus", "value": 64, "unit": "ng/g"}, {"measurement": "concentration at 10 days", "setting": "[2]; brain, medulla oblongata, oral, 50 mg/kg, 50 mg/kg intragastric once daily for 10 days, after last administration, read-out: Concentration in organ: Brain, Medulla oblongata", "value": 27.6, "unit": "ng/g"}, {"measurement": "concentration at 10 days", "setting": "[2]; brain, midbrain, oral, 50 mg/kg, 50 mg/kg intragastric once daily for 10 days, after last administration, read-out: Concentration in organ: Brain, Midbrain", "value": 7.4, "unit": "ng/g"}, {"measurement": "concentration at 10 days", "setting": "[2]; brain, striatum caudate nucleus, oral, 50 mg/kg, 50 mg/kg intragastric once daily for 10 days, after last administration, read-out: Concentration in organ: Brain, Striatum Caudate nucleus", "value": 59.8, "unit": "ng/g"}, {"measurement": "concentration at 10 days", "setting": "[2]; brain, striatum putamen, oral, 50 mg/kg, 50 mg/kg intragastric once daily for 10 days, after last administration, read-out: Concentration in organ: Brain, Striatum Putamen", "value": 42.1, "unit": "ng/g"}, {"measurement": "concentration at 10 days", "setting": "[2]; heart, oral, 50 mg/kg, 50 mg/kg intragastric once daily for 10 days, after last administration, read-out: Concentration in organ: Heart", "value": 305, "unit": "ng/g"}, {"measurement": "concentration at 10 days", "setting": "[2]; kidney (left), oral, 50 mg/kg, 50 mg/kg intragastric once daily for 10 days, after last administration, read-out: Concentration in organ: Kidney (left)", "value": 1600, "unit": "ng/g"}, {"measurement": "concentration at 10 days", "setting": "[2]; kidney (right), oral, 50 mg/kg, 50 mg/kg intragastric once daily for 10 days, after last administration, read-out: Concentration in organ: Kidney (right)", "value": 1530, "unit": "ng/g"}, {"measurement": "concentration at 10 days", "setting": "[2]; liver, oral, 50 mg/kg, 50 mg/kg intragastric once daily for 10 days, after last administration, read-out: Concentration in organ: Liver", "value": 1120, "unit": "ng/g"}, {"measurement": "concentration at 10 days", "setting": "[2]; retina, oral, 50 mg/kg, 50 mg/kg intragastric once daily for 10 days, after last administration, read-out: Concentration in organ: Retina", "value": 689, "unit": "ng/g"}, {"measurement": "concentration at 10 days", "setting": "[2]; spleen, oral, 50 mg/kg, 50 mg/kg intragastric once daily for 10 days, after last administration, read-out: Concentration in organ: Spleen", "value": 5280, "unit": "ng/g"}]}]}
